Measured values: article PMC13242511, “Disrupting Notch signalling by a small molecule inhibiting dihydroorotate dehydrogenase activity” (Scientific Reports, 2026)
Where two headings read alike, the source gives them in different places.

Experiments:
Type in all cases: cell-based
Notch signalling [1] = assay: Notch reporter assay (12xCSL firefly luciferase / renilla luciferase, HEK293T Notch1ΔE reporter cell line clone #A1-11); design: AUC Notch: scale not given here; Confirmation screen: unit not given here; conditions: for inhibitor ratio in % of DMSO in 3 point DR: 3-point DR confirmation screen, Notch reporter assay; for Bottom (Emax) / IC50: 14p Notch assay DR; for Bottom (Emax): Emax indicated independent from assay constraints, in % (unit assumed); for IC50: Homo sapiens, HEK-293T, bottom constrained to Emax of positive control DAPT; for AUC Notch: area under the 14-point dose-response curve, replicates averaged
How it was run: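 Compounds at two-fold concentration in 10 µl medium were brought to one-fold by adding 10 µl holding 4000 Notch reporter cells (clone #A1-11) per well of a 384-well plate. After 24 h, Promega dual-GLO firefly and renilla luciferase were read on a SpectraMaxi3. Dose-response curves were fitted with a log(inhibitor) vs. response variable-slope model.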

Notch signalling [2] = assay: as above; conditions: 24 h, unit from Fig. 2 legend
γ-secretase complex = γ-secretase complex (Homo sapiens, UniProt P49768); assay: APP-C99 counter assay (GSI reporter assay); design: AUC APP: scale not given here; conditions: for 3p-DR in % of DMSO counter: APP-C99 counter assay; for Hill-slope: 14p APP assay DR, bottom constrained to Emax of positive control LY-411575; for AUC APP: area under the 14-point dose-response curve, replicates averaged
How it was run: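 Cells transfected with APP-C99 firefly luciferase reporter plus renilla normalization plasmid, seeded 24 h later onto compound plates and cultured 24 h. Dual luciferase read in triplicate per concentration; IC50 from variable-slope log(inhibitor) fit, with AUC also calculated from dose–response curves.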

[3] = 10 µM, sheet conf vs counter 10 µM, same values as 3-point DR confirmation screen
[4] = 25 µM, Notch reporter 3-point dose-confirmation assay, sheet "conf vs counter 25 µM"
[5] = 10 µM, sheet conf vs counter 10 µM
[6] = 25 µM, sheet "conf vs counter 25 µM", same values given as % of DMSO in sheet "3p-DR in % of DMSO counter"
[7] = log10 value, read-out: approximated LogIC50 (converted)

Structure (SMILES) | inhibitor ratio in % of DMSO in 3 point DR (Notch signalling [1]; 10µM) | Confirmation screen (Notch signalling [1]; [3]) | inhibitor ratio in % of DMSO in 3 point DR (Notch signalling [1]; 25µM) | Confirmation screen (Notch signalling [1]; [4]) | inhibitor ratio in % of DMSO in 3 point DR (Notch signalling [1]; 1,25µM) | Primary screen at 10 µM (Notch reporter signal) (Notch signalling [2]) | 3p-DR in % of DMSO counter (γ-secretase complex; 10µM) | Counter screen (Hek APP-C99) (γ-secretase complex; [5]) | 3p-DR in % of DMSO counter (γ-secretase complex; 25µM) | Counter screen (Hek APP-C99) (γ-secretase complex; [6]) | 3p-DR in % of DMSO counter (γ-secretase complex; 1,25µM) | Bottom (Emax) (Notch signalling [1]) | IC50 (Notch signalling [1]; read-out: approximated IC50) [µM] | IC50 (Notch signalling [1]; [7]) [µM] | AUC Notch (Notch signalling [1]) | Hill-slope (γ-secretase complex) | AUC APP (γ-secretase complex)
C[C@@H]1C(=O)O[C@H]2[C@H]1CC[C@@]1(C)Cc3sc(NC(=O)CCC(=O)O)nc3[C@@H](C)[C@H]21 [CBK289429] | 38.0 % of DMSO | 38.0 | 25.1 % of DMSO | 25.1 | 77.4 % of DMSO | 35.5 % of DMSO | 23.7 % of DMSO | 23.6 | 12.4 % of DMSO | 12.4 | 76.3 % of DMSO |  |  |  |  |  | 
Fc1cc(CN2CCC3(CC2)OCCc2c3[nH]c3ccc(Br)cc23)cc(F)c1F [CBK039943] | 83.6 % of DMSO | 83.6 | 75.1 % of DMSO | 75.1 | 111.8 % of DMSO | 63.6 % of DMSO | 118.1 % of DMSO | 118.1 | 117.4 % of DMSO | 117.4 | 92.8 % of DMSO |  |  |  |  |  | 
COc1ccc(N(CC(O)CN2CCOCC2)S(=O)(=O)c2ccccc2)cc1 (stereo not shown) [CBK263589] | 96.3 % of DMSO | 96.3 | 100.1 % of DMSO | 100.1 | 103.6 % of DMSO | 69.0 % of DMSO | 81.1 % of DMSO | 81.1 | 76.7 % of DMSO | 76.7 | 74.5 % of DMSO |  |  |  |  |  | 
O=C(Nc1sccc1C(=O)N1CCOCC1)C(Sc1ccccc1)c1ccccc1 (stereo not shown) [CBK268165] | 60.1 % of DMSO | 60.1 | 57.1 % of DMSO | 57.1 | 101.2 % of DMSO | 64.8 % of DMSO | 58.6 % of DMSO | 58.6 | 58.2 % of DMSO | 58.2 | 84.7 % of DMSO |  |  |  |  |  | 
CCC(C)(C)c1ccc(S(=O)(=O)Nc2ccc3ncsc3c2)cc1 [CBK043490] | 33.5 % of DMSO | 33.5 | 42.6 % of DMSO | 42.6 | 42.1 % of DMSO | 46.9 % of DMSO | 45.0 % of DMSO | 45.0 | 59.5 % of DMSO | 59.5 | 53.8 % of DMSO |  |  |  |  |  | 
NC(=O)c1c(NC(=S)NC(NC(=O)c2ccccc2)C(Cl)(Cl)Cl)sc2c1CCCC2 (stereo not shown) [CBK261048] | 66.7 % of DMSO | 66.7 | 49.9 % of DMSO | 49.9 | 102.1 % of DMSO | 67.0 % of DMSO | 72.6 % of DMSO | 72.6 | 66.8 % of DMSO | 66.8 | 111.1 % of DMSO |  |  |  |  |  | 
CC(=O)Nc1cccc(-c2ccc(Nc3cccc(N(C)C)c3)nc2)c1 [CBK036829] | 28.3 % of DMSO | 28.3 | 23.9 % of DMSO | 23.9 | 30.6 % of DMSO | 22.4 % of DMSO | 40.4 % of DMSO | 40.4 | 38.9 % of DMSO | 38.9 | 49.9 % of DMSO |  |  |  |  |  | 
COc1ccc(-c2noc([C@@H]3Cc4[nH]cnc4CN3C(=O)CCC(=O)O)n2)cc1 [CBK288967] | 51.6 % of DMSO | 51.6 | 56.4 % of DMSO | 56.4 | 72.4 % of DMSO | 51.7 % of DMSO | 62.4 % of DMSO | 62.4 | 22.0 % of DMSO | 22.0 | 131.3 % of DMSO |  |  |  |  |  | 
c1ccc2c(c1)CCN(c1nc3cc4c(cc3s1)OCCO4)C2 [CBK287498] | 38.9 % of DMSO | 38.9 | 27.1 % of DMSO | 27.1 | 48.5 % of DMSO | 36.8 % of DMSO | 45.9 % of DMSO | 45.9 | 37.5 % of DMSO | 37.5 | 59.5 % of DMSO |  |  |  |  |  | 
NC(=O)c1[nH]nc(C2OC(CO)C(O)C2O)c1O (stereo not shown) [CBK201236] | 67.4 % of DMSO | 67.4 | 65.5 % of DMSO | 65.5 | 68.2 % of DMSO | 54.3 % of DMSO | 107.3 % of DMSO | 107.3 | 111.1 % of DMSO | 111.1 | 135.7 % of DMSO |  |  |  |  |  | 
CC(C)Nc1cncc(OCc2ccc(Cl)c(Cl)c2)n1 [CBK115653] | 44.3 % of DMSO | 44.3 | 30.6 % of DMSO | 30.6 | 102.4 % of DMSO | 41.7 % of DMSO | 31.9 % of DMSO | 31.8 | 19.5 % of DMSO | 19.5 | 104.9 % of DMSO |  |  |  |  |  | 
COc1cc(Nc2cncc(-c3cccc(NC(C)=O)c3)n2)cc(OC)c1OC [CBK065162] |  |  |  |  |  |  |  |  |  |  |  | 40.8 | 27 | 25.1 | 335.0 | 0.0468 | 573.8
c1ccc(-c2ccccc2CN2CCC3(CC2)OCCc2c3[nH]c3ccccc23)cc1 [CBK040201] |  |  |  |  |  |  |  |  |  |  |  | 50.0 | 2 | 2 | 592.0 | 0.0232 | 739.3
